Measurements as given in patent US12637468B2, “Substituted [1,2,4]triazolo[4,3-b]pyridazines as GABAA receptor modulators” (SHANGHAI SIMR BIOTECHNOLOGY CO., LTD., priority 2019, dated 2026).

target: T1, α5-GABAA receptor (Homo sapiens, UniProt P18507+P31644); assay: Cell-level screening: whole cell patch clamp, inverse agonist efficacy on α5-GABAA receptor expressed in HEK293; format: cell-based; conditions: drug 100 nM, GABA 0.05 μM, HEK293 expressing α5, β3 and γ2 subunits, clamped at −60 mV; read-out: Compound inverse agonist efficacy %
T1 construct: expressed in transfected cells; host or cells: HEK293, monoclonal stably transfected line
Procedure: The inventors used electrophysiological methods to determine the inverse agonist efficacy of the drugs to be tested on the α5-GABAA receptor. The detailed methods are as follows:
Different subunits of GABAA receptors were expressed in human […] cell line 293 (HEK293) cell line. The cells were cultured in a culture medium and used as a cell model for screening pain inhibiting drugs. The α, β and γ subunits are necessary to form complete functional GABAA receptors. In this embodiment, the inventors had established the following cell model: α5 subunit (see GenBank Accession No. NM_000810.3 for protein sequences), β3 subunit (see GenBank Accession No. NM_000814.5 for protein sequences) and γ2 subunit (see GenBank Accession No. NM_000816.3 for protein sequences) were expressed in HEK293 cell line at the same time, followed by screening the monoclonal cell line. This cell line contained α5-GABAA receptor and had complete GABAA receptor function.
The monoclonal stably transfected HEK-293 cells expressing α5-GABAA receptor were cultured in 10 cm culture dishes and passaged when the cells grew to 80%-90%. During passaging, the culture medium was aspirated first, then 3 mL of DPBS phosphate buffer salt (Gibco™) was added to the culture dishes, and the culture dishes were shaken slightly, and DPBS was aspirated. 1 mL of trypsin (TrypLE Express, Gibco™) was added thereto, and the cells were digested at 37° C. for 1-2 minutes. Then 3 mL of complete medium (DMEM+10% FBS (Gibco™)) was added and the cells at the bottom of the culture dishes were dispersed. The cell suspension were transferred to a 15 mL centrifugal tube (Corning) and then centrifuged at 200 g for 3 minutes. The supernatant was discarded, 4 mL of complete medium was added, and the cells were gently blown and resuspended for use. If cell passaging was performed, the cell suspension was diluted at a ratio of 1:5 or 1:10. If cells for electrophysiology use were prepared, the cell suspension was diluted in a ratio of 1:12, then added into a 24-well dish (Corning™) in which glass slides were placed and pretreated with Poly-D-Lysine, and the cells were tested after being attached to the walls. The culture time of cells for electrophysiology use was no more than 48 hours.
Drug concentration setting: the final drug concentration used in drug screening was 100 nM, and the GABA concentration range was 0.05 μM. The final drug concentrations used in the dose-inversal agonistic efficiency (%) test were 0.3 nM, 3 nM, 10 nM, 30 nM, 100 nM and 300 nM. The whole cell patch clamp technique was used in electrophysiological experiments, which could refer to the literature (I. Lecker, Y. Yin, D. S. Wang and B. A. Orser, (2013) Potentiation of GABAA receptor activity by volatile anaesthetics is reduced by α5-GABAA receptor-preferring inverse agonists, British Journal of Anaesthesia 110 (S1): i73-i81). The components of extracellular solution (ECS) for electrophysiology use were as follows: 150 mM NaCl, 5 mM KCl, 2.5 mM CaCl2), 1 mM MgCl2, 10 mM HEPES and 10 mM glucose (pH 7.4); electrode internal solutions for electrophysiology use were as follows: 140 mM CsCl, 11 mM EGTA, 10 mM HEPES, 2 mM CaCl2), 1 mM MgCl2, 4 mM MgATP, 2 mM TEA (pH 7.3). The signal acquisition used an EPC-10 amplifier and the PatchMaster software (HEKA). The recording electrode was drawn using borosilicate glass, and the electrode resistance was 4 to 6 MΩ. The ALA-VC3-8PP™ system was used for extracellular administration. Separate cells that grew independently was selected for recording. During recording, the cell membrane potential was clamped at −60 mV. During experiment, an extracellular solution was applied to the cells for about 20 seconds. When the baseline reached to a stable state, the extracellular solution was switched to GABA. Then the current induced by GABA could be detected. […]

T1 sequence (P31644 32-462): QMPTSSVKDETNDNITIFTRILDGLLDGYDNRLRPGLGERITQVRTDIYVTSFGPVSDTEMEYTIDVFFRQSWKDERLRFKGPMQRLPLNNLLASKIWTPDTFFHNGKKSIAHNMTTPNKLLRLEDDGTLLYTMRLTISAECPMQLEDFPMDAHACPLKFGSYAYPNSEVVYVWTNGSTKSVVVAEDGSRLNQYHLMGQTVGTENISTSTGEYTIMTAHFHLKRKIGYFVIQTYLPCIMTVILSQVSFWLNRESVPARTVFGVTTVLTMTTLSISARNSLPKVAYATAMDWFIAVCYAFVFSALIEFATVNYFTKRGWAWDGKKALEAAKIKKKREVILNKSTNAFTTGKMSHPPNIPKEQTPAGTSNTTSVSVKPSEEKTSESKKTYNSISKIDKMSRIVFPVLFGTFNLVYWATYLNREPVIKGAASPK
T1 sequence (P28472 26-473 partner): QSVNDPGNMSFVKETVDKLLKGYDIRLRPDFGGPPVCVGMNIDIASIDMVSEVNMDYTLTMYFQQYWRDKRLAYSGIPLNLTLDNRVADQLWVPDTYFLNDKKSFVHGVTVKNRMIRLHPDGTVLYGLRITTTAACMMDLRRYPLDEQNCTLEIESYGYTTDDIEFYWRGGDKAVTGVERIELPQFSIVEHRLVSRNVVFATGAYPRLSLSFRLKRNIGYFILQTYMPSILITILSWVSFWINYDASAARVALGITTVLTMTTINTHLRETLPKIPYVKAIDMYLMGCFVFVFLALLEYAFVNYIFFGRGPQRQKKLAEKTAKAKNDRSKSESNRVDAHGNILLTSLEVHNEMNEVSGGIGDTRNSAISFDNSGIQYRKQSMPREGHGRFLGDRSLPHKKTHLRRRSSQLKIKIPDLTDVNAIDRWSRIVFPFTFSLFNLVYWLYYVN
T1 sequence (P18507 40-467 isoform P18507-1 limits assumed): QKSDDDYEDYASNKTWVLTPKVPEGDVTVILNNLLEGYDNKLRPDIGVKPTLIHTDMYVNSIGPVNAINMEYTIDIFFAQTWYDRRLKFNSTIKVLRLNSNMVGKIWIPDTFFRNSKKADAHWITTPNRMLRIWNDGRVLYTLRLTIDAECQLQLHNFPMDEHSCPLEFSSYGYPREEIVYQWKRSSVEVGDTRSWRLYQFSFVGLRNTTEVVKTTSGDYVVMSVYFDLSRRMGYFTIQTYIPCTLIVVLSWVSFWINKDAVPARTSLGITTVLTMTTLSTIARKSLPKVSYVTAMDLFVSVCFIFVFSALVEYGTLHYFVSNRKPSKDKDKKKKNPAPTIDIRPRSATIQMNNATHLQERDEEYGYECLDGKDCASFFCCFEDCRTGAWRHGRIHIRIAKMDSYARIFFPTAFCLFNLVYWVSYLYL

Row | inhibition at 0.1 µM [%] | SMILES
1 | 72.6 | COc1cc2nnc(-c3cc(C)on3)n2nc1OCc1ccc2nc(C3CCOCC3)cn2n1 [Embodiment 212]
2 | 45.8 | COc1cc2nnc(-c3cc(C)on3)n2nc1OCc1ccc(OC(F)(F)F)cn1 [Embodiment 61]
3 | 46.2 | COc1ccnc(COc2nn3c(-c4cc(C)on4)nnc3cc2OC)c1 [Embodiment 51]
4 | 56.8 | COc1cc2nnc(-c3cc(C)on3)n2nc1OCc1ccc2c(n1)CCN(C1CN(C(C)=O)C1)C2 [Embodiment 199, 1-(3-(2-(((7-Methoxy-3-(5-methylisoxazol-3-yl)-[1,2,4]triazolo[4,3-b]pyridazin-6-yl)oxy)methyl)-7,8-dihydro-1,6-naphthyridin-6(5H)-yl)azetidin-1-yl)ethan-1-one]
5 | 46.6 | COc1cc2nnc(-c3cc(C)on3)n2nc1OCc1ccc2ncn(C3CCOC3)c2n1 (stereo not shown) [Embodiment 246]
6 | 40.4 | COc1cc2nnc(-c3cc(C)on3)n2nc1OCc1cccn(C)c1=O [Embodiment 74]
7 | 51.2 | CCn1cnc2ccc(COc3nn4c(-c5cc(C)on5)nnc4cc3OC)nc21 [Embodiment 249]
8 | 39.4 | COc1cc2nnc(-c3cc(C)on3)n2nc1OCc1ccc(C#N)cn1 [Embodiment 41]
9 | 48.1 | COc1cc2nnc(-c3cc(C)on3)n2nc1OCc1ccc(C2(F)CCCNC2)cn1 (stereo not shown) [Embodiment 95]
10 | 52.4 | COc1cc2nnc(-c3cc(C)on3)n2nc1OCc1ccc2c(n1)CCN(Cc1nnc(C)o1)C2 [Embodiment 188]
11 | 66.9 | COc1cc2nnc(-c3cc(C)on3)n2nc1OCc1cc(C#N)ccn1 [Embodiment 29]
12 | 36.7 | COc1cc2nnc(-c3cc(C)on3)n2nc1OCc1cccc(C2CCNC2)n1 (stereo not shown) [Embodiment 123]
13 | 42.4 | COc1cc2nnc(-c3cc(C)on3)n2nc1OCc1cccc(C(F)(F)F)n1 [Embodiment 45]
14 | 41.8 | COCCCOc1cnc(COc2nn3c(-c4cc(C)on4)nnc3cc2OC)cn1 [Embodiment 86]
15 | 34.5 | COc1cc2nnc(-c3cc(C)on3)n2nc1OCc1ccc2c(cnn2C)n1 [Embodiment 73]
16 | 29.4 | COc1cc2nnc(-c3cc(C)on3)n2nc1OCc1ncccc1C#N [Embodiment 30]
17 | 48.7 | COc1cc2nnc(-c3cc(CO)on3)n2nc1OCc1ccccn1 [Embodiment 46, (3-(7-Methoxy-6-(pyridin-2-ylmethoxy)-[1,2,4]triazolo[4,3-b]pyridazin-3-yl]isoxazol-5-yl)methanol]
18 | 34.7 | COCc1cc(-c2nnc3cc(OC)c(OCc4ccc(OC)cn4)nn23)no1 [Embodiment 48, 3-(7-Methoxy-6-((5-methoxypyridin-2-yl)methoxy)-[1,2,4]triazolo[4,3-b]pyridazine-3-yl)-5-(methoxymethyl)isoxazole]
19 | 50 | COc1cc2nnc(-c3cc(C)on3)n2nc1OCc1ccc2c(n1)CN(CCCC#N)C2 [Embodiment 257]
20 | 50.5 | CCn1nc(C)c2nc(COc3nn4c(-c5cc(C)on5)nnc4cc3OC)ccc21 [Embodiment 243]
21 | 54.7 | COc1cc2nnc(-c3cc(C)on3)n2nc1OCc1ccc2c(n1)c(C)nn2C1COC1 [Embodiment 242]
22 | 32.9 | COc1cc2nnc(-c3cc(C)on3)n2nc1OCc1ccc2ccn(C)c2n1 [Embodiment 94]
23 | 38 | COc1cc2nnc(-c3cc(C)on3)n2nc1OCc1ccc2c(n1)CNC2 [Embodiment 98]
24 | 48 | COc1cc2nnc(-c3cc(C)on3)n2nc1OCc1ccc2c(cnn2C2CCOCC2)n1 [Embodiment 239]
25 | 37.1 | COc1cc2nnc(-c3cc(C)on3)n2nc1OCc1cccc(N(C)C)n1 [Embodiment 3]
26 | 38 | COc1cc2nnc(-c3cc(C)on3)n2nc1OCc1ccc(C2CC2)cn1 [Embodiment 34]

Row | inhibition at 0.1 µM [%] | SMILES
27 | 47.6 | COc1cc2nnc(-c3cc(C)on3)n2nc1OCc1cc(OC2COC2)ccn1 [Embodiment 172]
28 | 32.3 | COc1cc2nnc(-c3cc(C)on3)n2nc1OCc1cccc2ccnn12 [Embodiment 117]
29 | 47.2 | COc1cc2nnc(-c3cc(C)on3)n2nc1OCc1ccc2c(n1)CNC2=O [Embodiment 89]
30 | 30.4 | CCN1CC(Oc2ccc(COc3nn4c(-c5cc(C)on5)nnc4cc3OC)nc2)C1 [Embodiment 134]
31 | 49.8 | COc1cc2nnc(-c3cc(C)on3)n2nc1OCc1ccc(OCC2CCCO2)nn1 (stereo not shown) [Embodiment 165]
32 | 31.5 | COc1cc2nnc(-c3cc(C)on3)n2nc1OCc1ccccc1C#N [Embodiment 5]
33 | 50.4 | COCCNc1ccc(COc2nn3c(-c4cc(C)on4)nnc3cc2OC)nn1 [Embodiment 159]
34 | 47.2 | COc1cc2nnc(-c3cc(C)on3)n2nc1OCc1ccc(-c2nc(C)no2)cn1 [Embodiment 137, 5-(6-(((7-Methoxy-3-(5-methylisoxazol-3-yl)-[1,2,4]triazolo[4,3-b]pyridazin-6-yl)oxy)methyl)pyridin-3-yl)-3-methyl-1,2,4-oxadiazole]
35 | 45.8 | COCCCOc1ccc(COc2nn3c(-c4cc(C)on4)nnc3cc2OC)nn1 [Embodiment 15]
36 | 41.7 | COCCOc1ccc(COc2nn3c(-c4cc(C)on4)nnc3cc2OC)nn1 [Embodiment 26]
37 | 74.4 | COc1cc2nnc(-c3cc(C)on3)n2nc1OCc1ccc2nn(Cc3cc(C)on3)cc2n1 [Embodiment 225]
38 | 61.5 | COc1cc2nnc(-c3cc(C)on3)n2nc1OCc1ccc2c(cnn2C2COC2)n1 [Embodiment 227]
39 | 35.7 | COc1cc2nnc(-c3cc(C)on3)n2nc1OCc1ccc(C(F)(F)F)cn1 [Embodiment 59]
40 | 34.1 | COc1cc2nnc(-c3cc(C)on3)n2nc1OCc1ccc(OC(C)C)cn1 [Embodiment 25]
41 | 40.8 | COc1cc2nnc(-c3cc(C)on3)n2nc1OCc1cccc(F)n1 [Embodiment 4]
42 | 59 | COc1cc2nnc(-c3cc(C)on3)n2nc1OCc1ccc2c(n1)CCN([C@H]1CCOC1)C2 (single isomer, unassigned) [Embodiment 181]
43 | 35.9 | COc1cc2nnc(-c3cc(C)on3)n2nc1OCc1ccc2c(n1)NCCO2 [Embodiment 119]
44 | 42.2 | COc1cc2nnc(-c3cc(C)on3)n2nc1OCc1ccc2ccn(C3CCOCC3)c2n1 [Embodiment 252]
45 | 23 | COc1cc2nnc(-c3cc(C)on3)n2nc1OCc1cccc(Cl)n1 [Embodiment 18]
46 | 50.1 | CCc1cn2nc(COc3nn4c(-c5cc(C)on5)nnc4cc3OC)ccc2n1 [Embodiment 176]
47 | 37.4 | COc1cc2nnc(-c3cc(C)on3)n2nc1OCc1cc2c(cn1)OCCO2 [Embodiment 121]
48 | 31.4 | COc1cc2nnc(-c3cc(C)on3)n2nc1OCc1ccc2c(ncn2C2CCOCC2)n1 [Embodiment 248]
49 | 39.8 | COCCn1ccc2nc(COc3nn4c(-c5cc(C)on5)nnc4cc3OC)ccc2c1=O [Embodiment 147]
50 | 71.7 | COc1cc2nnc(-c3cc(C)on3)n2nc1OCc1ccc2c(n1)N(C)CCO2 [Embodiment 149]
51 | 32.6 | COc1cc2nnc(-c3cc(C)on3)n2nc1OCc1ccc2c(ccn2C)n1 [Embodiment 97]
52 | 53.8 | COc1cc2nnc(-c3cc(C)on3)n2nc1OCc1ccc2c(n1)CCN([C@@H]1CCOC1)C2 (single isomer, unassigned) [Embodiment 182]
